Assay results taken from ChEMBL document CHEMBL6103630, “Discovery of Novel 2,4,5-Trisubstituted Pyrimidine Derivatives as Potent and Selective FGFR Inhibitors against Gatekeeper Mutants for the Treatment of NSCLC” (J Med Chem, 2025).
Activity calls are given as the source filed them. No cut-off for these calls is given here.

What was measured:
[1] = target: Fibroblast growth factor receptor 1 (Homo sapiens) (UniProt P11362); conditions: dose 1000.0 nM
Description: Inhibition of FGFR1 (unknown origin) at 1000 nM by caliper mobility shift assay relative to control

[2] = target: Fibroblast growth factor receptor 1 (Homo sapiens) (UniProt P11362); test: Reversible inhibition of FGFR1 (unknown origin) phosphorylation in human NCI-H1581 cells at 1 uM preincubated with compound for 2 hrs followed by compound washout and measured after 0.5 hrs by Western blotting analysis; format: cell-based
[3] = tested on: NCI-H1581; test: cells; conditions: Homo sapiens, NCI-H1581, 48 h
Description: Antiproliferative activity against human NCI-H1581 cells assessed as inhibition of cell proliferation incubated for 48 hrs by MTT assay

[4] = tested on: A549; test: cells; conditions: Homo sapiens, A549, 48 h
Description: Antiproliferative activity against human A549 cells assessed as inhibition of cell proliferation incubated for 48 hrs by MTT assay

[5] = tested on: NCI-H1581; test: Antitumor activity against human NCI-H1581 cells xenografted in BALB/c nude mouse assessed as tumor growth inhibition at 60 mg/kg relative to control; format: functional; conditions: read-out: TGI

Fibroblast growth factor receptor 1 (Homo sapiens), sequence (P11362 22-822 limits assumed): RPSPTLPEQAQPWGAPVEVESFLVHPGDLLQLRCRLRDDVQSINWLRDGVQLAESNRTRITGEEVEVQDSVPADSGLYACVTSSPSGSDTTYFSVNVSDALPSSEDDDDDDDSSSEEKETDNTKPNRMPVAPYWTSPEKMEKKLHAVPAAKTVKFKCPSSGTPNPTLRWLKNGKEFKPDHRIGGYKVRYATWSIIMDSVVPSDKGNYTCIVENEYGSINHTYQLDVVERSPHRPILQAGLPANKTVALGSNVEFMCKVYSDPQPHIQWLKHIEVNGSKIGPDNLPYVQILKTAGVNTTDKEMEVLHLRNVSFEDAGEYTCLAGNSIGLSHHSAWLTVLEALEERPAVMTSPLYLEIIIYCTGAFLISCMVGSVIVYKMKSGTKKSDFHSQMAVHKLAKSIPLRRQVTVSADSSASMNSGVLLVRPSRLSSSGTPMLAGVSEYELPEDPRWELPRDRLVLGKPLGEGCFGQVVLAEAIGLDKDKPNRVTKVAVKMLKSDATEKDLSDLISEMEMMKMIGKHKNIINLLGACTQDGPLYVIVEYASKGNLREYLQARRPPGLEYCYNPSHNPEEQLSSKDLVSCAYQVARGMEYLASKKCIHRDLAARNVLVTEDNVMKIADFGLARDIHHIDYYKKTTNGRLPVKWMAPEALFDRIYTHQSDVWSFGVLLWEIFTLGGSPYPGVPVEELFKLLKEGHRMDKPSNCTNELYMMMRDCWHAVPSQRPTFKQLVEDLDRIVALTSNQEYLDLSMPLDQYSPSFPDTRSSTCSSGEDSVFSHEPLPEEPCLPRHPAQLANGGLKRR

**Q.** For C=CC(=O)Nc1ccccc1Nc1nc(Nc2ccc(N3CCN(C)CC3)cc2)ncc1Cl, which inhibition [1] is on record?
**A.** 94.9%

**Q.** How did the inhibition [2] turn out when Cc1ccc(C(=O)Nc2ccc(CN3CCN(C)CC3)c(C(F)(F)F)c2)cc1C#Cc1cnc2cccnn12 was run?
**A.** inactive

**Q.** What does the source list for C=CC(=O)Nc1ccc(Nc2nc(Nc3ccc(N4CCN(C)CC4)nc3)ncc2Cl)cc1Cl?
**A.** IC50 [3]: 470 nM; IC50 [4]: 3180 nM

**Q.** For C=CC(=O)Nc1ccc(Nc2nc(Nc3ccc(N4CCN(C)CC4)c(F)c3)ncc2Cl)cc1Cl, which IC50 [3] is on record?
**A.** 130 nM

**Q.** And the IC50 [4]?
**A.** 4150 nM

**Q.** For C=CC(=O)Nc1ccc(Nc2nc(Nc3ccc(N4CCC(N(C)C)CC4)c(OC)c3)ncc2Cl)cc1Cl, which IC50 [3] is on record?
**A.** 120 nM

**Q.** And the IC50 [4]?
**A.** 12100 nM

**Q.** C=CC(=O)Nc1ccc(Nc2nc(Nc3ccc(N4C[C@@H](C)N[C@@H](C)C4)cc3)ncc2Cl)cc1Cl was tested. Which IC50 [3] did it give?
**A.** 210 nM

**Q.** And the IC50 [4]?
**A.** 1180 nM

**Q.** For C=CC(=O)N1CC[C@H](n2nc(C#Cc3cc(OC)cc(OC)c3)c3c(N)ncnc32)C1 [FUTIBATINIB], which IC50 [3] is on record?
**A.** 5 nM

**Q.** And the inhibition in vivo at 60 mg/kg [5]?
**A.** 54%

**Q.** What about the IC50 [4] of the same compound?
**A.** > 20000 nM

**Q.** Which results are given for C=CC(=O)Nc1ccc(Nc2nc(Nc3ccc(N4CCN(CC)CC4)c(OC)c3)ncc2Cl)cc1Cl?
**A.** IC50 [3]: 170 nM; IC50 [4]: 9030 nM
